Source: ChEMBL document CHEMBL1127384, “Design, synthesis, and conformational analysis of a novel macrocyclic HIV-protease inhibitor” (J Med Chem, 1994)

Target: Human immunodeficiency virus type 1 protease (Human immunodeficiency virus 1, UniProt Q72874)
Assay: In vitro ability to inhibit HIV-protease.

CC(C)[C@@H]1NC(=O)CNC(=O)COc2ccc(cc2)C[C@@H](C(=O)C(F)(F)C(=O)NCc2ccccc2)NC1=O
Ki: 0.02 µM

CC(C)[C@H](NC(=O)OCc1ccccc1)C(=O)N[C@@H](Cc1ccc(OCc2ccccc2)cc1)C(=O)C(F)(F)C(=O)NCc1ccccc1
Ki: 0.005 µM
